Molecules are shown by their SMILES. Entries after “also recorded” stand apart in the source; their conditions may differ.

Type in all cases: biochemical
Assay [1] relates to non-specific amplification products. As to the kind of experiment: RT-PCR without template, EVA Green monitoring of non-specific amplification products (Example 1). The settings on record: 0.0015, 0.005, 0.01% (w/w) MIT (0.015, 0.05, 0.1% (w/w) PROCLIN 950); no template; compared to reactions without MIT. The text has this:
The primers and probes in the reaction mixtures target HIV-1 nucleic acids. The fluorescent DNA-intercalating dye, EVA Green, was included in each reaction to monitor the accumulation of non-specific amplification products. Realtime EVA Green fluorescence signals from RT-PCR reactions comprising […], 0.05. and 0.1% (w/w) PROCLIN 950 are shown in FIG. 1.

A further assay concerns Chlamydia trachomatis. As to the kind of experiment: Prototype CT/NG assay RT-PCR with 0.1 inclusion forming units (Example 4). The settings on record: 0.015% (w/w) PROCLIN 950 (0.0015% (w/w) MIT); 0.1 inclusion forming units of Chlamydia trachomatis; compared to no PROCLIN 950. On the procedure:
During the development of embodiments of the technology provided herein, experiments were conducted to test RT-PCR in the presence of MIT in a prototype CT/NG assay master mix. Prototype CT/NG assay master mixes comprising 0.1 inclusion forming units of Chlamydia trachomatis and either 0.015% (w/w) PROCLIN 950 (0.0015% (w/w) MIT) or comprising no PROCLIN 950 were tested by RT-PCR (8 replicates each condition). CT-specific realtime fluorescence signals from CT/NG RT-PCR reactions comprising 0 or 0.015% (w/w) PROCLIN 950 (0.0015% (w/w) MIT) are shown in FIG. 4. […] Further, the prototype CT/NG assay uses different primer and probe sets than the prototype HIV-1 assay described in Example 3.

Assay [2] deals with non-specific amplification products. As to the kind of experiment: RT-PCR without HIV-1 target RNA after master mix incubation at 2 to 8° C. for 16 hours, EVA Green (Example 2). Particulars: 0.0015, 0.005, 0.01% (w/w) MIT; master mix incubated at 2 to 8° C. for 16 hours; no HIV-1 target RNA; compared to reactions without MIT. The method, then:
During the development of embodiments of the technology provided herein, experiments were conducted to simulate the preparation of bulk RT-PCR reagents by a commercial manufacturing process. In particular, prototype HIV-1 assay master mixes comprising 0, 0.015, 0.05, and 0.1% (w/w) PROCLIN 950 (corresponding to 0, 0.0015, 0.005, and 0.01% (w/w) MIT concentrations, respectively) were incubated at 2 to 8° C. for 16 hours. RT-PCR was then performed with each master mix in the absence of HIV-1 target RNA (2 replicates per condition). The fluorescent DNA-intercalating dye. EVA Green was included in each reaction to monitor the accumulation of non-specific amplification products. Realtime EVA Green fluorescence signals from RT-PCR reactions comprising 0, 0.015, 0.05, and 0.1% (w/w) PROCLIN 950 are shown in FIG. 2.

A further assay has as its system HIV-1 target RNA. As to the kind of experiment: Prototype HIV-1 assay RT-PCR with 50 copies of target RNA (Example 3). The settings on record: 0.015% (w/w) PROCLIN 950 (0.0015% (w/w) MIT); 50 copies of HIV-1 target RNA; compared to no PROCLIN 950. On the procedure:
During the development of embodiments of the technology provided herein, experiments were conducted to test RT-PCR in the presence of MIT in a prototype HIV-1 assay master mix. Prototype HIV-1 assay master mixes comprising 50 copies of HIV-1 target RNA and either 0.015% (w/w) PROCLIN 950 (0.0015% (w/w) MIT) or comprising no PROCLIN 950 were tested by RT-PCR (8 replicates each condition). HIV-specific realtime fluorescence signals from HIV-1 RT-PCR reactions comprising 0 or 0.015% (w/w) PROCLIN 950 are shown in FIG. 3.

With `Cn1sccc1=O` [MIT, 2-methyl-4-isothiazolin-3-one], the “non-specific product formation (EVA Green signal)” value is recorded as “reduces the accumulation of non-specific product; also recorded: decreased levels of non-specific product formation” in assay [1] and “reduces the accumulation of non-specific product during prolonged storage; also recorded: decreased levels of non-specific product formation” in assay [2]. The “CT-specific realtime fluorescence signal (RT-PCR performance)” value in the assay on Chlamydia trachomatis was “enhances RT-PCR performance”. Besides, the “HIV-specific realtime fluorescence signal (RT-PCR performance)” value in the assay on HIV-1 target RNA is “enhances RT-PCR performance”.

These data come from patent US20220169622A1, “AMPLIFICATION OF NUCLEIC ACIDS” (Abbott Molecular Inc., priority 2018, published 2022).
